What was measured:
[1] = target: T1, OAT-K2 (Solute carrier organic anion transporter family member 1A3) (Rattus norvegicus, UniProt P70502); assay: (§1) TP_TRANSPORTER: uptake in OAT-K2-expressing MDCK cells; assay type: functional, cell-based; settings: dog
T1 sequence (P70502 whole entry): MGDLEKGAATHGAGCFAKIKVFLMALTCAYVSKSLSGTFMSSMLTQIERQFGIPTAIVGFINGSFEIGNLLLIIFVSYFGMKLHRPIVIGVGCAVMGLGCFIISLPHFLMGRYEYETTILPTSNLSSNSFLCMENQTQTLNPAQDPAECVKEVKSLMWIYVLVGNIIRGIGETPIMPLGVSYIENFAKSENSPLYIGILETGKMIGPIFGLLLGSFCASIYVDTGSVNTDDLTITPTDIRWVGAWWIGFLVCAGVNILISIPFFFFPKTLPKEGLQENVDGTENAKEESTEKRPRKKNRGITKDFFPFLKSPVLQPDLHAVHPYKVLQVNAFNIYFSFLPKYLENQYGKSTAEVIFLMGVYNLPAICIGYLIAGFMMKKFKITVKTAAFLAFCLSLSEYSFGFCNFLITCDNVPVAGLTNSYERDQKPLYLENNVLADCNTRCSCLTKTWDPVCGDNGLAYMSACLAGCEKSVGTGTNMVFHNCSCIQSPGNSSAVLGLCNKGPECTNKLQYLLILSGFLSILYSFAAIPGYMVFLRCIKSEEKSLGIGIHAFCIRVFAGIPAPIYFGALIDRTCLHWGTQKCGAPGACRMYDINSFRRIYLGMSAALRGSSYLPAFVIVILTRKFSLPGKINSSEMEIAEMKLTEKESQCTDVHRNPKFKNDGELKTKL

[2] = target: T2, OAT-K1 (Solute carrier organic anion transporter family member 1A3) (Rattus norvegicus, UniProt P70502); assay: (§2) TP_TRANSPORTER: uptake in OAT-K1-expressing MDCK cells; assay type: functional, cell-based; settings: dog
T2 sequence (P70502 whole entry): T1 sequence (P70502 whole entry)

[3] = target: T3, Solute carrier organic anion transporter family member 1A3 (Rattus norvegicus, UniProt P70502); assay: TP_TRANSPORTER: inhibition of Taurocholate uptake (Taurocholate: 0.25 uM, OTA: 100 uM) in OAT-K1-expressing MDCK cells; assay type: functional, cell-based; settings: dog
T3 sequence (P70502 whole entry): T1 sequence (P70502 whole entry)

[4] = target: T3, Solute carrier organic anion transporter family member 1A3; assay: TP_TRANSPORTER: inhibition of Taurocholate uptake (Taurocholate: 0.25 uM, DHEA-3-acetate: 100 uM) in OAT-K1-expressing MDCK cells; assay type: functional, cell-based; settings: dog
[5] = target: T3, Solute carrier organic anion transporter family member 1A3; assay: TP_TRANSPORTER: inhibition of MTX uptake (MTX: 0.1 uM, T4: 50 uM) in OAT-K2-expressing MDCK cells; assay type: functional, cell-based; settings: dog
[6] = target: T4, Solute carrier organic anion transporter family member 1A4 (Rattus norvegicus, UniProt O35913); assay: TP_TRANSPORTER: inhibition of Digoxin uptake in Xenopus laevis oocytes
T4 sequence (O35913 whole entry): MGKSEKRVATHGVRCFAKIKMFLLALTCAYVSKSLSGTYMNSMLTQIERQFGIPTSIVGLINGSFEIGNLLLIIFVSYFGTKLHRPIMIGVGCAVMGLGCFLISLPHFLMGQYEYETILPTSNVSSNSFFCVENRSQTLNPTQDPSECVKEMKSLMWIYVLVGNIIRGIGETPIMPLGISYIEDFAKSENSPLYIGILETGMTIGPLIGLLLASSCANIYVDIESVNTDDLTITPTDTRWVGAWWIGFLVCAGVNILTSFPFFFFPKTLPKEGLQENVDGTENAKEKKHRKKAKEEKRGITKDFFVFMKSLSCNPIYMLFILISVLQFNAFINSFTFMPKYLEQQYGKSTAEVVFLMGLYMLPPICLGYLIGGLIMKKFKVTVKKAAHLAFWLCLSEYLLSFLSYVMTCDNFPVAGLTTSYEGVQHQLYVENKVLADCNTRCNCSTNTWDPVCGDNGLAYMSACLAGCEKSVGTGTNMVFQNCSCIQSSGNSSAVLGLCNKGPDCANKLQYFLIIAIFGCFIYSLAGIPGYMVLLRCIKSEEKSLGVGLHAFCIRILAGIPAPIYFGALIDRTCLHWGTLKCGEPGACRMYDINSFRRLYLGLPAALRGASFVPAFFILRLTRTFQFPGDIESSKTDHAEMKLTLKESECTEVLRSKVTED

[7] = target: T3, Solute carrier organic anion transporter family member 1A3; assay: TP_TRANSPORTER: inhibition of MTX uptake (MTX: 0.1 uM, T3: 50 uM) in OAT-K2-expressing MDCK cells; assay type: functional, cell-based; settings: dog
[8] = target: T3, Solute carrier organic anion transporter family member 1A3; assay: TP_TRANSPORTER: inhibition of T3 uptake (T3: 0.43nM, MTX: 2500 uM) in OAT-K1-expressing MDCK cells; assay type: functional, cell-based; settings: dog
[9] = target: T3, Solute carrier organic anion transporter family member 1A3; assay: TP_TRANSPORTER: inhibition of T3 uptake (T3: 0.43nM, MTX: 2500 uM) in OAT-K2-expressing MDCK cells; assay type: functional, cell-based; settings: dog
[10] = target: T3, Solute carrier organic anion transporter family member 1A3; assay: TP_TRANSPORTER: inhibition of Taurocholate uptake (Taurocholate: 0.25 uM, DHEAS: 100 uM) in OAT-K1-expressing MDCK cells; assay type: functional, cell-based; settings: dog
[11] = target: T3, Solute carrier organic anion transporter family member 1A3; assay: TP_TRANSPORTER: inhibition of Taurocholate uptake (Taurocholate: 0.25 uM, DHEA: 100 uM) in OAT-K1-expressing MDCK cells; assay type: functional, cell-based; settings: dog
[12] = substrate: C[C@]12CC[C@@H]3c4ccc(O)cc4CC[C@H]3[C@@H]1CC[C@@H]2O[C@@H]1O[C@H](C(=O)O)[C@@H](O)[C@H](O)[C@H]1O; assay: as §1; assay type: functional, cell-based
[13] = substrate: N[C@@H](Cc1cc(I)c(Oc2ccc(O)c(I)c2)c(I)c1)C(=O)O; assay: as §1; assay type: functional, cell-based
[14] = substrate: [H][C@@]12CC=C3C[C@@H](OS(=O)(=O)O)CC[C@]3(C)[C@@]1([H])CC[C@]1(C)C(=O)CC[C@@]21[H]; assay: as §1; assay type: functional, cell-based
[15] = substrate: N[C@@H](Cc1cc(I)c(Oc2cc(I)c(O)c(I)c2)c(I)c1)C(=O)O; assay: as §1; assay type: functional, cell-based
[16] = substrate: CN(Cc1cnc2nc(N)nc(N)c2n1)c1ccc(C(=O)N[C@@H](CCC(=O)O)C(=O)O)cc1; assay: as §1; assay type: functional, cell-based
[17] = substrate: C[C@]12CC[C@@H]3c4ccc(O)cc4CC[C@H]3[C@@H]1CC[C@@H]2O[C@@H]1O[C@H](C(=O)O)[C@@H](O)[C@H](O)[C@H]1O; assay: as §2; assay type: functional, cell-based
[18] = substrate: N[C@@H](Cc1cc(I)c(Oc2ccc(O)c(I)c2)c(I)c1)C(=O)O; assay: as §2; assay type: functional, cell-based
[19] = substrate: [H][C@@]12CC=C3C[C@@H](OS(=O)(=O)O)CC[C@]3(C)[C@@]1([H])CC[C@]1(C)C(=O)CC[C@@]21[H]; assay: as §2; assay type: functional, cell-based
[20] = substrate: N[C@@H](Cc1cc(I)c(Oc2cc(I)c(O)c(I)c2)c(I)c1)C(=O)O; assay: as §2; assay type: functional, cell-based

Q: What does the source list for `C[C@@H]1Cc2c(Cl)cc(C(=O)N[C@@H](Cc3ccccc3)C(=O)O)c(O)c2C(=O)O1` [3R14S-OCHRATOXIN A]?
A: Km [1]: 16.6 µM; Km [2]: 5.6 µM; Activity [3]: inhibitor [(at a rough estimate) 55 % of control]

Q: Which Activity [4] does the source give for `CC(=O)O[C@H]1CC[C@@]2(C)C(=CC[C@@H]3[C@@H]2CC[C@]2(C)C(=O)CC[C@@H]32)C1` [DEHYDROEPIANDROSTERONE ACETATE] here?
A: inhibitor [(at a rough estimate) 30 % of control]

Q: Which Activity [5] does the source give for `N[C@@H](Cc1cc(I)c(Oc2cc(I)c(O)c(I)c2)c(I)c1)C(=O)O` [LEVOTHYROXINE] here?
A: inhibitor [(at a rough estimate) 60 % of control]

Q: What does the source list for `N[C@@H](Cc1cc(I)c(Oc2ccc(O)c(I)c2)c(I)c1)C(=O)O` [LIOTHYRONINE]?
A: IC50 [6]: 50.4 µM; Activity [7]: inhibitor [(at a rough estimate) 60 % of control]

Q: For `CN(Cc1cnc2nc(N)nc(N)c2n1)c1ccc(C(=O)N[C@@H](CCC(=O)O)C(=O)O)cc1` [METHOTREXATE], which Activity [8] is on record?
A: inhibitor [(at a rough estimate) 75 % of control]

Q: And the Activity [9]?
A: inhibitor [(at a rough estimate) 75 % of control]

Q: With `C[C@]12CC[C@H](OS(=O)(=O)O)CC1=CC[C@@H]1[C@@H]2CC[C@]2(C)C(=O)CC[C@@H]12` [PRASTERONE SULFURIC ACID] as the molecule, how does the Activity [10] read?
A: inhibitor [(at a rough estimate) 30 % of control]

Q: With `C[C@]12CC[C@H](O)CC1=CC[C@@H]1[C@@H]2CC[C@]2(C)C(=O)CC[C@@H]12` [PRASTERONE] as the molecule, how does the Activity [11] read?
A: inhibitor [(at a rough estimate) 30 % of control]

Q: Which results are given for `Cc1cn([C@H]2C[C@H](N=[N+]=[N-])[C@@H](CO)O2)c(=O)[nH]c1=O` [ZIDOVUDINE]?
A: Km [1]: 76.3 µM; Km [2]: 64.3 µM

B1: Solute carrier organic anion transporter family member 1A3 (Rattus norvegicus) (protein)
chain: T1 sequence (P70502 whole entry)
Q: With B1 as the molecule, how does the Km [12] read?
A: 44.9 µM

Q: What about the Km [13] of the same molecule?
A: 24.8 µM

Q: What about the Km [14] of the same molecule?
A: 7.6 µM

Q: What about the Km [15] of the same molecule?
A: 12 µM

Q: What about the Km [16] of the same molecule?
A: 1.8 µM

Q: And the Km [17]?
A: 35.3 µM

Q: What about the Km [18] of the same molecule?
A: 43.8 µM

Q: And the Km [19]?
A: 8.5 µM

Q: And the Km [20]?
A: 20.2 µM

— ChEMBL document CHEMBL2074119, “Multispecific substrate recognition of kidney-specific organic anion transporters OAT-K1 and OAT-K2” (J Pharmacol Exp Ther, 2001)
